Experimental data reported in ChEMBL document CHEMBL1201862, “PubChem BioAssay data set” (2004).
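In this assay, cells in 96-well plates receive the compound at five concentrations for 48 hours. Endpoints are linearly interpolated between the surrounding concentrations. GI50 marks 50% less growth.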 Calls of active or inactive are those of the source. No stated cut-off is given here; in the data, active = GI50 up to about 1.1 µM and inactive = higher.

Experiments:
Assay in all cases: DTP human tumour cell line panel, 48 h
EKVX = test system: EKVX
HCC 2998 = test system: HCC 2998
HCT-15 = test system: HCT-15
HL-60 = test system: HL-60
HOP-62 = test system: HOP-62
HOP-92 = test system: HOP-92
IGROV-1 = test system: IGROV-1
LOX IMVI = test system: LOX IMVI
M14 = test system: M14
MDA-MB-435 = test system: MDA-MB-435
NCI-H226 = test system: NCI-H226
NCI-H23 = test system: NCI-H23
NCI/ADR-RES = test system: NCI/ADR-RES
OVCAR-4 = test system: OVCAR-4
OVCAR-8 = test system: OVCAR-8
RXF 393 = test system: RXF 393
SK-MEL-28 = test system: SK-MEL-28
SN12C = test system: SN12C
UACC-62 = test system: UACC-62
UO-31 = test system: UO-31

Structure (SMILES) | GI50 (EKVX) | GI50 (HCC 2998) | GI50 (HCT-15) | GI50 (HL-60) | GI50 (HOP-62) | GI50 (HOP-92) | GI50 (IGROV-1) | GI50 (LOX IMVI) | GI50 (M14) | GI50 (MDA-MB-435) | GI50 (NCI-H226) | GI50 (NCI-H23) | GI50 (NCI/ADR-RES) | GI50 (OVCAR-4) | GI50 (OVCAR-8) | GI50 (RXF 393) | GI50 (SK-MEL-28) | GI50 (SN12C) | GI50 (UACC-62) | GI50 (UO-31)
CC(C)NC(=O)OCc1c(COC(=O)NC(C)C)c(-c2ccc[n+](COC(=O)C3CC3)c2)n2c1CCC2 | > 100 µM (inactive) | > 100 µM (inactive) | 87.3 µM | 29.6 µM (inactive) | 49.1 µM (inactive) | 40.8 µM (inactive) | > 100 µM (inactive) | 38.8 µM (inactive) | 85.9 µM (inactive) | > 100 µM (inactive) | > 100 µM (inactive) | 29.6 µM (inactive) | 47.1 µM (inactive) | 45.8 µM (inactive) | 55 µM (inactive) | 34.2 µM (inactive) | > 100 µM (inactive) | 48.1 µM (inactive) | 27.6 µM (inactive) | 41.2 µM (inactive)
CC[C@@]1(OC(=O)C(N)CCCCN)C(=O)OCc2c1cc1n(c2=O)Cc2cc3ccccc3nc2-1 (some centres undefined) | 0.753 µM (active) | 0.41 µM (active) | 0.248 µM | < 0.0132 µM (active) | < 0.0148 µM (active) | 0.179 µM (active) | 0.212 µM (active) | 0.0171 µM (active) | 0.0204 µM (active) | 0.293 µM (active) | 0.111 µM (active) | 0.0219 µM (active) | 0.0354 µM (active) | 0.332 µM (active) | 0.0502 µM (active) | 0.122 µM (active) | 0.442 µM (active) | < 0.0149 µM (active) | < 0.0128 µM (active) | 0.0263 µM (active)
COc1cn2c(cc1=O)COc1ccc(-c3ccccc3)cc1-2 | 36 µM (inactive) | 46.9 µM (inactive) | 54.5 µM | 41.3 µM (inactive) | 83.6 µM (inactive) | 46.9 µM (inactive) | 38.8 µM (inactive) | 36.9 µM (inactive) | 45.4 µM (inactive) | 39.7 µM (inactive) | 64.6 µM (inactive) | 45.5 µM (inactive) | 49.9 µM (inactive) | > 85.1 µM (inactive) | > 76.4 µM (inactive) | > 82.6 µM (inactive) | > 100 µM (inactive) | 77.3 µM (inactive) | 44 µM (inactive) | 28.4 µM (inactive)
O=C1NC(SSC2=NNC3(C(=O)N2)c2ccccc2-c2ccccc23)=NNC12c1ccccc1-c1ccccc12 | > 10 µM (inactive) | > 10 µM (inactive) | > 10 µM | > 10 µM (inactive) | > 10 µM (inactive) | > 10 µM (inactive) | > 10 µM (inactive) | > 10 µM (inactive) | > 10 µM (inactive) | > 10 µM (inactive) | > 10 µM (inactive) | > 10 µM (inactive) | > 10 µM (inactive) | > 10 µM (inactive) | > 10 µM (inactive) | > 10 µM (inactive) | > 10 µM (inactive) | > 10 µM (inactive) | > 10 µM (inactive) | > 10 µM (inactive)
O=C1CS/C(=N/N=C/c2cn(Cc3ccc(Cl)cc3Cl)c3ccccc23)N1 | 20.9 µM (inactive) | 32.2 µM (inactive) | 37.3 µM | > 100 µM (inactive) | 27.6 µM (inactive) | 28.2 µM (inactive) | 73.3 µM (inactive) | 25.2 µM (inactive) | 36.5 µM (inactive) | 25 µM (inactive) | > 100 µM (inactive) | 58.3 µM (inactive) | 24.5 µM (inactive) | 21.8 µM (inactive) | 10.8 µM (inactive) | 24.9 µM (inactive) | 50.4 µM (inactive) | 19.5 µM (inactive) | 91.2 µM (inactive) | 31.8 µM (inactive)
Cc1nc2c(=O)n(-c3ccccc3)c3ccccc3c2o1 | > 100 µM (inactive) | > 100 µM (inactive) | > 100 µM | > 100 µM (inactive) | > 100 µM (inactive) | > 100 µM (inactive) | > 100 µM (inactive) | > 100 µM (inactive) | > 100 µM (inactive) | > 100 µM (inactive) | > 100 µM (inactive) | > 100 µM (inactive) | > 100 µM (inactive) | > 100 µM (inactive) | > 100 µM (inactive) | > 100 µM (inactive) | > 100 µM (inactive) | > 100 µM (inactive) | > 100 µM (inactive) | > 100 µM (inactive)
O=C(N(O)c1ccccc1Cl)C(O)(c1ccccc1)c1ccccc1 | > 100 µM (inactive) | 35.4 µM (inactive) | 39.3 µM | 22.6 µM (inactive) | > 100 µM (inactive) | 26.1 µM (inactive) | 78.9 µM (inactive) | 49.3 µM (inactive) | 54.1 µM (inactive) | 65.2 µM (inactive) | > 100 µM (inactive) | > 100 µM (inactive) | 63.8 µM (inactive) | > 100 µM (inactive) | 76.2 µM (inactive) | 51.2 µM (inactive) | 93.3 µM (inactive) | > 100 µM (inactive) | 45.8 µM (inactive) | 20.6 µM (inactive)
COc1cc(/C=N/c2ccccn2)cc(OC)c1OC | > 100 µM (inactive) | > 100 µM (inactive) | > 82.6 µM | 1.87 µM (inactive) | > 100 µM (inactive) | > 100 µM (inactive) | > 100 µM (inactive) | > 100 µM (inactive) | > 100 µM (inactive) | 24.5 µM (inactive) | > 100 µM (inactive) | > 100 µM (inactive) | > 100 µM (inactive) | > 100 µM (inactive) | > 100 µM (inactive) | 58.7 µM (inactive) | > 86.9 µM (inactive) | > 100 µM (inactive) | > 100 µM (inactive) | > 100 µM (inactive)
Nc1ccn([C@@H]2C=C(CO)[C@@H](O)[C@H]2O)c(=O)n1 | 0.562 µM (active) | 1.29 µM (inactive) | 0.0916 µM | 0.05 µM (active) | 0.102 µM (active) | 0.224 µM (active) | 0.108 µM (active) | 0.0667 µM (active) | 0.186 µM (active) | 0.05 µM (active) | 5.53 µM (inactive) | 0.169 µM (active) | 0.092 µM (active) | 0.216 µM (active) | 0.0817 µM (active) | 0.53 µM (active) | 0.298 µM (active) | 0.0546 µM (active) | 0.227 µM (active) | 0.105 µM (active)
COc1c(OC)c(OC)c(-c2cc(=O)c3c(OC)c(OC)c(OC)c(OC)c3o2)c(OC)c1OC | 59.8 µM (inactive) | 28.7 µM (inactive) | 26.7 µM | 37.2 µM (inactive) | 81.8 µM (inactive) | 21.3 µM (inactive) | 25.5 µM (inactive) | 30.9 µM (inactive) | 44 µM (inactive) | 34.5 µM (inactive) | 54.2 µM (inactive) | 22.2 µM (inactive) | 23.9 µM (inactive) | 18.1 µM (inactive) | 31.1 µM (inactive) | 27.3 µM (inactive) | 90.2 µM (inactive) | 50.5 µM (inactive) | 34.3 µM (inactive) | 29.2 µM (inactive)
CC1(C)[C@@H]2C[C@H]1c1cnc(-c3ccccn3)cc1[C@H]2C(O)[C@@H]1c2cc(-c3ccccn3)ncc2[C@H]2C[C@@H]1C2(C)C (some centres undefined) | 0.165 µM (active) | 0.993 µM (active) | 0.0718 µM | 0.0212 µM (active) | 0.073 µM (active) | 0.322 µM (active) | 0.043 µM (active) | 0.0272 µM (active) | 0.082 µM (active) | 1 µM (active) | < 0.0504 µM (active) | 0.189 µM (active) | 0.101 µM (active) | 0.0618 µM (active) | 0.124 µM (active) | 0.198 µM (active) | 0.47 µM (active) | 0.0547 µM (active) | 0.247 µM (active) | 0.0785 µM (active)
COc1ccc(-c2oc3cc(O)c(OC)c(O)c3c(=O)c2O)cc1 [BETULETOL] | 18.9 µM (inactive) | 19.3 µM (inactive) | 4.84 µM | 2.9 µM (inactive) | 4.73 µM (inactive) | 6.7 µM (inactive) | 15.1 µM (inactive) | 6.19 µM (inactive) | 17.8 µM (inactive) | 17.9 µM (inactive) | 5.19 µM (inactive) | 5.62 µM (inactive) | 6.73 µM (inactive) | 30.2 µM (inactive) | 9.95 µM (inactive) | 12 µM (inactive) | 20.2 µM (inactive) | 5.6 µM (inactive) | 10.3 µM (inactive) | 6.46 µM (inactive)
OC(C/C(=N\N1CCCCC1)c1cccs1)(C(F)(F)F)C(F)(F)F | > 10 µM (inactive) | > 10 µM (inactive) | > 10 µM | > 10 µM (inactive) | > 10 µM (inactive) | > 10 µM (inactive) | > 10 µM (inactive) | > 10 µM (inactive) | > 10 µM (inactive) | > 10 µM (inactive) | > 10 µM (inactive) | > 10 µM (inactive) | > 10 µM (inactive) | > 10 µM (inactive) | > 10 µM (inactive) | > 10 µM (inactive) | > 10 µM (inactive) | > 10 µM (inactive) | > 10 µM (inactive) | > 10 µM (inactive)
N/C(CCSCCSCC/C(N)=N\O)=N\O | > 100 µM (inactive) | > 100 µM (inactive) | > 100 µM | > 100 µM (inactive) | > 100 µM (inactive) | > 100 µM (inactive) | > 100 µM (inactive) | > 100 µM (inactive) | > 100 µM (inactive) | > 100 µM (inactive) | > 100 µM (inactive) | > 100 µM (inactive) | > 100 µM (inactive) | > 100 µM (inactive) | – | > 100 µM (inactive) | > 100 µM (inactive) | > 100 µM (inactive) | > 100 µM (inactive) | > 100 µM (inactive)
